One compound from patent publication US9920295B2, “Bioreactor for isolation of rare cells and methods of use” (The Trustees of the University of Pennsylvania, priority 2012, dated 2018) can be followed below.

For data set [1], the system named is BM CD34+-derived cells (CD41+ MK). The data set can be described thus: Ploidy analysis of CD34+-derived cells treated with contractility inhibitors (flow cytometry). Format: cell-based, human. As to conditions: for maximal polyploid cell number: scaled to 10,000 initial cell input. The protocol: Fresh purified bone marrow (BM)-derived humanCD34^+ cells were obtained from either the Penn Xenograft Core Facility or AllCells. Cells from at least 10 different donors were used in this study. Purity of the samples (>98%) was confirmed by flow cytometry with monoclonal antibody against human CD34 conjugated to phycoerythrin (PE). All experiments were performed in hematopoietic stem cell (HSC) expansion media (StemLine-II; Sigma) supplemented with 1× antibiotics, and the following human recombinant cytokines SCF (100 ng/mL) and Tpo (100 ng/mL). In some occasions, the media was also supplemented by G-CSF (100 ng/mL). All cytokines were purchased from R&D Systems. After cells were cultured for 4 days, they were treated with different doses of cellular contractility inhibitors, including (±)-blebbistatin (EMDBiosciences), reversine, ML-7, and Y-27632 (Sigma) for indicated durations of up to 3 days. Unfortunately, longer exposure to drug proves toxic even to polyploidy cells under the present culture conditions. Cells were then resuspended in PBS/2% FBS medium and subjected to ploidy analysis: cells were stained with CD41-FITC (BD Biosciences) at room temperature for 30 min, followed by Hoechst 33342 at 37° C. for 30 min. Then cells were stained with Annexin-V-PE (BD Biosciences) in the Annexin-V staining medium, followed by addition of 7-AAD. Stained cells were subjected to flow cytometric analysis (LSR-II; BD Biosciences): only viable cells (7-AAD^− and Hoechst 33342^+) were analyzed for ploidy. Cells with the DNA content of 8 N or higher were considered polyploid. To quantify absolute number of polyploid cells, viable cell number was counted before flow cytometry by Trypan blue exclusion, and this number was multiplied by percentages of each DNA compartment and subpopulations. Each multiplied number was then normalized by initial cell input number before drug treatment in culture.

Another data set deals with MKs. The data set can be described thus: Proplatelet extension quantification. Format: cell-based, human. The protocol:
Three-dimensional collagen gels embedded with cells were prepared as previously published (Rhee et al., 2007, Proc Natl Acad Sci USA, 104:5425-5430). BM-derived cells were added to the collagen solution prepared by neutralizing 2.0 mg/mL collagen-I (BD Biosciences) with HSC expansion media adjusted to appropriate the pH, so that cells could be embedded to the polymerized matrices (1×10^5 cells/mL). Next, 200 μL of this collagen mixture was placed in a well of 24-well plate and incubated at 37° C. 5% CO2 overnight before being formaldehyde-fixed and processed for microscopic analysis. Washing steps were done gently using pipette to minimize disturbance of gels. After completion of staining, matrices were released from the plate by gentle shaking and transferred to glass slides in mounting medium with either a spatula or gentle pipetting.
Cells on coverslips were fixed with 4% paraformaldehyde, followed by permeabilization with 0.5% Triton X-100 in PBS for 15 min and blocking with 1% BSA in PBS for 30 min. Samples were then stained with primary antibodies (1:100 for all antibodies used) overnight at 4° C. After washing, staining with appropriate Alexa-conjugated secondary antibodies (1:400) was performed for 45 min at room temperature. Cells were washed three times with PBS and mounted in ProLong Gold antifade medium (Invitrogen). Samples were then analyzed by fluorescence microscopy. For quantitative analysis, pictures from each experiment were taken under a defined set of exposure times on the same day with 40× objectives. Intensity of labeled NMM-II proteins for each cell was analyzed by ImageJ by subtracting a background, defining a threshold of cell boundary, followed by calculation of mean intensity. At least 10 images from each experiment were analyzed from three independent experiments. For proplatelet quantification, the process length from each cell was measured by manual tracing with ImageJ. Only processes above detection limit (≥1 μm in length from cell body) were considered for statistical analysis.

Another data set addresses T1, αIIbβ3 (Homo sapiens, UniProt P05106+P08514).
T1 construct: endogenous in cells; host or cells: platelet-like fragments from megakaryocytes cultured from human bone-marrow CD34+ cells
As to the kind of experiment: Platelet activation assay, PAC-1 binding. Format: cell-based. As to conditions: thrombin 1 U/mL. On the procedure: For platelet-activation assays, platelet-sided fraction isolated from either MK culture or NSG blood was resuspended in Tyrode's buffer supplemented with Mg^2+ and Ca^2+, and incubated with indicated agonists for 15 min at 37° C., followed by staining with FITC-conjugated anti-human P-selectin or PAC-1 antibody (BD Bioscience), APC-conjugated anti-human CD41, and in the case of xenograft samples, PE-conjugated anti-mouse CD41 for 15 min at room temperature, followed by fixation with 1.5% paraformaldehyde. Antibody-stained samples were then analyzed by flow cytometry. Platelet number was evaluated by mixing each sample with a defined number (˜10,000 beads per sample) of APC-conjugated beads (BD Bioscience). The number of platelets per sample was evaluated by: number of CD41^+ events/number of APC-bead events multiplied by total known number of APC-bead added per sample.

T1 sequence (P08514 32-887 limits assumed): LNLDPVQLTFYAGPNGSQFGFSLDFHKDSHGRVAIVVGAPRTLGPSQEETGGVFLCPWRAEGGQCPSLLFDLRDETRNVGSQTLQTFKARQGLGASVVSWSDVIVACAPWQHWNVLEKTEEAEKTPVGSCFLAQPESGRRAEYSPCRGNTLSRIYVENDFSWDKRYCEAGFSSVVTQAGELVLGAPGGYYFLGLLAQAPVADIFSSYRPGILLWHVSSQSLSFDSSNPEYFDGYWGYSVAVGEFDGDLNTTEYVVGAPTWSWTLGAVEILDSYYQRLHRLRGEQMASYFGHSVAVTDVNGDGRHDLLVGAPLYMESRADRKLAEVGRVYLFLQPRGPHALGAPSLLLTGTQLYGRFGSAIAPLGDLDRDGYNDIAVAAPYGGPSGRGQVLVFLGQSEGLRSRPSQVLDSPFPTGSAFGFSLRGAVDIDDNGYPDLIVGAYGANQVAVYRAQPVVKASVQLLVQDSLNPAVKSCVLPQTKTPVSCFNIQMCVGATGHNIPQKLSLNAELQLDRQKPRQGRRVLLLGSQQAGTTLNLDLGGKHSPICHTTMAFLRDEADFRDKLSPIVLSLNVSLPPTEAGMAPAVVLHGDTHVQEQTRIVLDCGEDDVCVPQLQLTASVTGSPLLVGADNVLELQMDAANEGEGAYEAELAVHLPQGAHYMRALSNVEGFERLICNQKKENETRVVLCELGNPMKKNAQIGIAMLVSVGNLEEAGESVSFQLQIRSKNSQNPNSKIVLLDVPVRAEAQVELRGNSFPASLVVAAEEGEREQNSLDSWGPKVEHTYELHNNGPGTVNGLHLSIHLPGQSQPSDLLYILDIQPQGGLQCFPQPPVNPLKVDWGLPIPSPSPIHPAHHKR
T1 sequence (P08514 891-1039 partner limits assumed): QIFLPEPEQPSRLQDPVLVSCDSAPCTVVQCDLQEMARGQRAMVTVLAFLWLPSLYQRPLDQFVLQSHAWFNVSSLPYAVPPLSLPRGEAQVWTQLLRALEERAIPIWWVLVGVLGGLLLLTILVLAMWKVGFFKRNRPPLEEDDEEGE
T1 sequence (P05106 27-788): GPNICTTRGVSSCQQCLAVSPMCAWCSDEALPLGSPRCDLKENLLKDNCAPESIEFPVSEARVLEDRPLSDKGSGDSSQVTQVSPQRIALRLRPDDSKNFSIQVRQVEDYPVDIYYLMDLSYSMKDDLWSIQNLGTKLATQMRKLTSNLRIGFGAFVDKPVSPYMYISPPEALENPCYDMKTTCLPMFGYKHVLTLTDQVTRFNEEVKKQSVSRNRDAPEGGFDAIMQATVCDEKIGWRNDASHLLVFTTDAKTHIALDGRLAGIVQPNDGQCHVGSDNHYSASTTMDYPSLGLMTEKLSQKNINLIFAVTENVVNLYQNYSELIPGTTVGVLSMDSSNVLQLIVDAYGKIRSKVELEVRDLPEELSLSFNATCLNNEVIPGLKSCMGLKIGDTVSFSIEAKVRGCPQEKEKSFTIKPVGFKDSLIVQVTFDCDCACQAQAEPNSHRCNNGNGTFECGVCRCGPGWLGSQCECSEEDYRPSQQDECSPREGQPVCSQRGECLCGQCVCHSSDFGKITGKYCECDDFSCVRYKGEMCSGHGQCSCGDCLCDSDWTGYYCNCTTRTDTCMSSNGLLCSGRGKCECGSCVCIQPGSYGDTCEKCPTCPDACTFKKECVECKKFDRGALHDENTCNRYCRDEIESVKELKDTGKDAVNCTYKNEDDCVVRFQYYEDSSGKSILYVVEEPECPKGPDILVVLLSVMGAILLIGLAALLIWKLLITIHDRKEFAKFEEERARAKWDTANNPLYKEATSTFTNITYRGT

With `Cc1ccc2c(c1)C(=O)C1(O)CCN(c3ccccc3)C1=N2` (racemic) [blebbistatin, (±)-blebbistatin], in data set [1], the “drug dose found to be toxic” value is around 100 µM. Further, the “enrichment of mature polyploid MKs” value in data set [1] was around 10 folds. Besides, in data set [1] (20 μM), the “doubling time of polyploid cell generation” value is listed as 18.2 h. Besides, the Ki in data set [1] (MK polyploidization / progenitor depletion in cells, read-out: inhibition constant Ki) was around 7.6 µM. The “maximal polyploid cell number” value was 278 in data set [1] (SCF+Tpo CD41+), 1 in data set [1] (SCF+Tpo CD41−), 141 in data set [1] (SCF+Tpo+G-CSF CD41+) and 352 in data set [1] (SCF+Tpo+G-CSF CD41−). The EC50 in data set [1] (dose-response, n≥3 donors, read-out: MK polyploid cell number EC50) stood at 7.6 µM. In addition, the IC50 in data set [1] (treatment for 3 d, with or without G-CSF, read-out: CD41+ MK and non-MK polyploid cell number IC50) was 7.6 µM. Further, the “increase in mean length of proplatelet extensions” value in the data set with MKs (cells grown on plastic) was “approximately threefold”. For the same compound, the “effect on proplatelet extensions” value in the data set with MKs (cells in 3D collagen gels or on stiff, osteoid-like matrices) was “no effect”. For the same compound, the “average proplatelet extension velocity” value in the data set on MKs (live imaging) is around 1 μm/min. Also, the “PAC-1 binding of platelets derived from drug-exposed MKs” value on αIIbβ3 is “normal PAC-1 binding”.
